Laboratory results reported in patent US12122812B2, “Method for preparing biomaterial having selectively functionalized tyrosine, biomaterial having selectively functionalized tyrosine, and pharmaceutical composition containing same as active ingredient” (SEOUL NATIONAL UNIVERSITY R&DB FOUNDATION, priority 2018, dated 2024).

Legend:
Balb/c mice = assay: Hematopoietic function of PEGylated rhEPO: hematocrit (HCT) in mice; assay type: in vivo; details: normal male Balb/c mice, intravenous 20 μg/kg every 3 days
Protocol: In order to confirm whether the PEGylated rhEPO obtained in Example 1 maintained the hematopoietic function even after the PEGylation, the following experiment was performed, and the results are shown in FIG. 6.
The rhEPO without PEGylation and the PEGylated rhEPO (PEG-rhEPO) prepared in Example 1 were intravenously injected into Balb/c mice at a dose of 20 μg/kg every 3 days. In vivo activities were compared by measuring hematocrit (HCT), a reliable method for quantification of erythrocytes. As a control, phosphate buffered saline (PBS) was used.
Particularly, normal male Balb/c mice were purchased from Orient Bio Inc. (South Korea). The weight of the mice was 23-25 g, and the mice were housed in groups of 3-4 mice in one cage. Food and water were supplied freely (ad libitum), and each cage was allowed to have a 12-hour light/dark cycle under the conventional animal experiment system of KPC, Korea.
Each sample (rhEPO or PEG-rhEPO) ([…] in DPBS) was injected intravenously into normal male Balb/c mice (50 μL/mouse) every 3 days for 2 weeks. The same amount of DPBS was administered to the control group. A total of 21 mice were used in the experiment. Blood samples were collected every 3 days including day 0 to evaluate the hematopoietic effect. Hematocrit was evaluated by measuring the volume of the packed cells obtained by centrifugation performed immediately after the blood collection. Delta hematocrit (DHematocrit) was determined by the difference between the initial hematocrit for each mouse (day 0) and the hematocrit at each time point.

HeLa cells = assay: Cytotoxicity by cell counting kit-8 (CCK-8) viability test; assay type: cell-based; details: 0.1 to 100 μM
Protocol: The cytotoxicity was evaluated in HeLa cells by cell counting kit-8 (CCK-8) viability test.
Particularly, HeLa cells were seeded in a 96-well tissue culture plate at the density of 5,000 cells/well and cultured in 100 μL of DMEM (Dulbecco's Modified Eagle's Medium) supplemented with 10% FBS (fetal bovine serum) for 24 hours. After replacing the medium with 90 μL of a fresh medium, 10 μl of the compound prepared in Preparative Example 4 of various concentrations (final 0.5% DMSO) was added to each well of the plate, and the cells were further cultured for 24 hours and 48 hours. The cells were washed 3 times with a fresh medium to remove extracellular samples, and 100 μl of a fresh medium containing 10% CCK-8 was added to each well of the plate. After incubating the cells at 37° C. for 2 hours, OD450 was measured with a microplate reader (Molecular Devices Co., Menlo Park, Calif., USA). Only the background signal of CCK-8 was subtracted from all the samples. The cell viability was evaluated as the percentage of absorbance of the untreated cells to the control.

Row | Compound | HCT level compared with rhEPO without PEGylation (statistical analysis) (Balb/c mice) | HCT level (hematocrit) over time (Balb/c mice; blood sampled every 3 days for 15 days) | HCT level compared with control group (statistical analysis) (Balb/c mice; control PBS/DPBS) | Cytotoxicity (cell viability, CCK-8) (HeLa cells; 24 hours) | Cytotoxicity (cell viability, CCK-8) (HeLa cells; 48 hours)
1 | PEG-rhEPO: PEGylated recombinant human erythropoietin, PEG bound by sulfate bond to Tyr-49 | no significant difference | increased for 15 days | clear difference | – | –
2 | N[C@@H](Cc1ccc(OS(=O)(=O)Oc2ccc(C[C@H](N)C(=O)O)cc2)cc1)C(=O)O [Preparative Example 4, (2S,2'S)-3,3′-((sulfonylbis(oxy))bis(4,1-phenylene))bis(2-aminopropanoic Acid)] | – | – | – | did not show cytotoxicity | did not show cytotoxicity
